The structures appear in SMILES notation. Where “and” joins values, the source holds several entries; their conditions need not be identical. Equal values may be shown once.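 Method: 48-hour compound exposure of cells in 96-well plates, five concentrations, linear interpolation of endpoints. GI50 marks 50% less growth. TGI denotes the concentration required for complete inhibition of growth.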

Drawing on PubChem BioAssay (NCI), this text covers TGI and GI50 for 34 molecules.

Common to all, as to assay: inhibition of tumour cell growth, NCI panel, 48 h
In assay [1] the test system is HOP-18 NSCLC.
The subject of assay [2] is SNB-78 CNS.
In assay [3] the test system is LXFL 529 NSCLC.
The test system of assay [4] is XF 498 CNS.
In assay [5] the test system is DMS 273 small cell lung.
Assay [6] concerns DLD-1 colon.
In assay [7] the test system is KM20L2 colon.
The subject of assay [8] is RXF-631 renal.
In assay [9] the test system is MDA-N.

`C/C(=N\NC(N)=S)C(CN(CC(C)C)CC(C)C)C(=O)Nc1ccc(C)cc1C` (configuration not stated): the TGI in assay [1], in [2], in [3], in assay [4], in [5] and in assay [6] was greater than 100 µM in each case. For the same molecule, in assay [7], the TGI was greater than 100 µM.

`Nc1c(C(=O)Nc2ccccc2)[n+]([O-])c2ccccc2[n+]1[O-]`: the TGI came out at 26.3 µM in assay [1]; 40.4 µM in [2]; 28.1 µM in assay [3]; 32.6 µM in assay [4]; 46.9 µM in assay [5]; 37.6 µM in assay [6]. Also, in [7], the TGI is 34.7 µM.

Turning to `CC(=O)OC1(C)C(=O)OC1(C)C(C)=O` (configuration not stated), the TGI in assay [1], in assay [8], in assay [2], in assay [3], in [5] and in [6] was greater than 100 µM throughout. In addition, the TGI in [7] is greater than 100 µM.

For `CC(C)(C)C(=O)ON1N=NC2C3CC(OCc4ccccc4)(OCc4ccccc4)C(O3)C21` (configuration not stated), the TGI in assay [1] was 94.2 µM; in assay [8], 82.1 µM; in assay [2], greater than 100 µM; in assay [3], 25.8 µM; in assay [4] it was 33.5 µM; in assay [5] it was 51.2 µM. Also, the TGI was found to be 44.6 µM in [6] and 77.5 µM in [7].

Take `O=C1CN(C(=O)c2ccccc2)Cc2[nH]c3ccccc3c21`: the TGI in [1], in assay [8], in assay [2], in [3], in [4] and in [5] was greater than 100 µM in each case. Also, the TGI in [6] and in assay [7] was greater than 100 µM each time.

Consider `COc1cc2c[n+](C)c3c4ccccc4ccc3c2cc1OC` (tested in a mixture with another compound), for which the TGI in [1] was 76.8 µM; in [8], greater than 66.1 µM; in assay [3] it was 16 µM; in assay [4], 17.7 µM; in assay [5] it was 15.7 µM; in assay [9], 20.5 µM. Further, the values for the TGI in assay [6] and in [7] were greater than 100 µM and 37.9 µM, respectively.

For the molecule `Cc1ccc(SC2=CC(=O)c3nc4ccccc4c4ccnc2c34)cc1`, in assay [9], the GI50 was 28.8 µM and the TGI is greater than 75 µM.

As to `Cc1cc(NS(=O)(=O)c2ccc(NC(=O)c3cccc4c(Nc5ccc(S(=O)(=O)N=C(N)N)cc5)c5ccccc5nc34)cc2)no1`, the TGI in assay [8], in assay [2], in assay [3], in assay [5], in assay [6] and in assay [7] was greater than 100 µM each time.

As to `C/C(=N\N=C(/[Se])N1CC2CCC(CC2)C1)c1ccccn1`, the TGI in assay [1] amounted to 1.98 µM; in [8] it was 3.88 µM; in assay [2], 2.88 µM; in assay [3] it was 0.0256 µM; in [4] it was 0.0981 µM; in [5] it was 1.79 µM. Besides, the TGI in [9] stood at 2.6 µM; in assay [6], 1.96 µM; in [7], 0.682 µM.

On to `CN1CC(C(=O)C2C(=O)c3ccccc3C2=O)C(=O)C(=O)C(C(=O)C2C(=O)c3ccccc3C2=O)C1` (configuration not stated), for which the TGI in assay [8], in assay [4], in assay [5] and in [6] was greater than 100 µM each time.

With `O=C(OCC1CO1)c1cccs1` (configuration not stated), the TGI in assay [8], in assay [2], in assay [3], in [4], in [5] and in [6] was greater than 100 µM each time. For the same molecule, in assay [7], the TGI was greater than 100 µM.

With `COc1cccc(Cc2c3cc(OC)ccc3cc[n+]2C)c1`, the TGI is greater than 100 µM in assay [2]; greater than 100 µM in [3]; 70.7 µM in assay [4]; greater than 100 µM in [6]; greater than 100 µM in [7].

As to `COc1cc2c(cc1O)CC13CCC(=O)N1CCc1cc(OC)c(O)c-2c13` (configuration not stated), the TGI in assay [1], in assay [8], in assay [2], in [3], in assay [6] and in assay [7] was greater than 68.1 µM in each case.

For `CCOC(=O)C1SC(=Nc2ccc(Cl)c(Cl)c2)N=C1C` (configuration not stated), the TGI in assay [1], in assay [8], in [3], in [4], in assay [5] and in assay [6] was greater than 100 µM each time. The TGI in [7] came out at 78.8 µM.

`CCOC(=O)C(=Cc1ccc(C(=O)OC)cc1)C(=O)OCC`: the TGI in [1] came out at 10.7 µM; in [3] it was 3.62 µM; in assay [5] it was 3.9 µM; in assay [6], 4.46 µM; in assay [7], 14.1 µM.

Turning to `COc1ccccc1NC(=O)C1=C(C)NC(C)=C(C(=O)Nc2ccccc2OC)C1c1ccc(C)cc1`, the TGI in assay [1], in assay [2], in assay [3], in assay [4], in assay [5] and in assay [7] was greater than 100 µM in each case.

The molecule `COc1cccc(/C=C/c2cnc3ccccc3n2)c1OC` displayed a TGI in assay [9] greater than 100 µM.

In the case of `Cc1ccc2c(c1)NC(=O)CC(c1ccccc1)=N2`, the TGI in [9] came to 60.7 µM.

For `CC(=O)CCCCO`, the TGI in assay [2], in assay [3], in assay [4] and in assay [5] was greater than 100 µM in each case.

`COC(=O)C1(F)C(=O)NC(=O)NC1O` (configuration not stated) yielded a TGI in assay [9] greater than 100 µM.

With `COc1ccc(/C=C/C(=O)Oc2cc(O)cc(O)c2)cc1`, the TGI in [9] was greater than 100 µM.

In the case of `COc1cc(/C=C2\CCC(CN(C)C)C2=O)ccc1OC(=O)c1ccccc1` (configuration not stated), the TGI amounted to 30.9 µM in assay [1]; 23.6 µM in [8]; 39.9 µM in [2]; 9 µM in [3]; 34.6 µM in assay [4]; 27.4 µM in [5]. Also, the TGI in assay [9] was determined as 29.6 µM; in assay [6], 16.1 µM; in assay [7], 30.3 µM.

Consider `CCN(CCCl)CCCNc1c2ccccc2nc2ccc(OC)cc12`, for which the GI50 in [2] was 585 µM; in assay [4], 381 µM; in [5], 177 µM; in [6], 174 µM. Also, the values for the TGI in [3] and in [7] were 1.7 µM and 2.2 µM, respectively.

With `NC(=O)C(c1ccccc1)N1CCOCC1` (configuration not stated), the TGI in assay [1], in assay [2], in assay [3], in [5], in assay [6] and in [7] was greater than 100 µM throughout.

As for `CCSC1=C(C)N(C=NC(C)(C)C)CC1`, the TGI in [1], in [8], in [2], in assay [3], in [4] and in [5] was greater than 100 µM each time. For the same molecule, the TGI in [6] and in [7] was greater than 100 µM throughout.

For `CC(=O)OCC1OC(OC2CC3C(C)(C)C(O)CC[C@]3(C)C3CCC45CC4(CC[C@H]5C(C)CC(O)C4OC4(C)C)[C@]23C)C(O)C(O)C1O` (some centres not stated), the GI50 is 5.27 µM in assay [1]; 2.92 µM in [3]; 4.44 µM in assay [5]; 14 µM in assay [6]; 11.9 µM in assay [7]. Further, the TGI in [1] was 13.6 µM and 17.5 µM; in assay [3] it was 12.2 µM and 12.6 µM; in assay [4], 14.3 µM; in assay [5], 15.1 µM and 15.7 µM; in assay [6], 14.9 µM and 28.8 µM; in assay [7], 15.6 µM and 24.2 µM.

Consider `O=C(CC(=O)N1N=C(N2c3ccccc3Sc3ccccc32)CC1c1ccccc1)Nc1ccc(Cl)cc1` (configuration not stated), for which the TGI in [1], in assay [2], in assay [3], in [4], in assay [5] and in assay [6] was greater than 100 µM throughout. In assay [7], this molecule returned a TGI greater than 100 µM.

Regarding `CC1=CCC23C(C1)OC(Br)(C=CC2(C)O)C3(C)C` (configuration not stated), the TGI in assay [1], in assay [2], in [4], in [5] and in [6] was greater than 100 µM in each case.

Regarding `c1ccc2c(c1)[nH]c1cnc3c4cccnc4[nH]c3c12`, the TGI was 36.7 µM in assay [1], 46.6 µM in [2], 35.5 µM in assay [3] and 33.5 µM in assay [6].

Turning to `O=C1c2c(n(Cc3ccccc3)c(=O)n2Cc2ccccc2)C(=O)N1Cc1ccccc1`, the TGI was greater than 100 µM in assay [1]; greater than 100 µM in assay [8]; greater than 100 µM in assay [2]; greater than 100 µM in assay [3]; 98.5 µM in assay [4]; greater than 100 µM in [5]. Moreover, the TGI in [6] and in assay [7] was greater than 100 µM in each case.

In [9], `O=C(O)c1cc(N=Cc2ccccc2O)cc(C(=O)O)c1` yielded a TGI greater than 100 µM.

On to `COc1ccc(/C=C\c2cc(OC)c(OC)c(OC)c2)cc1OC(=O)CCC(=O)O`, for which the TGI in [9] is greater than 100 µM.

With `Fc1ccc(C2SCc3nc4ccccc4n32)cc1` (configuration not stated), the TGI in [2], in [3], in assay [4] and in assay [6] was greater than 100 µM in each case.

Regarding `O=C(C(=O)N1CC2C=CC1CC2)c1c[nH]c2ccccc12` (configuration not stated), the TGI in [1], in assay [8], in assay [2], in [3], in assay [5] and in [6] was greater than 100 µM each time. Also, in assay [7], the TGI was greater than 100 µM.
